In patent publication US20110206781A1, “METHOD TO MODULATE HEMATOPOIETIC STEM CELL GROWTH” (priority 2008, published 2011):

Experiments:
[1] = tested on: nos1; assay: blastula transplantation of cmyb:GFP donor cells into lmo2:dsRed recipients; format: in vivo, zebrafish; conditions: 36 hpf, p=0.0065
Description: Blastula Transplantation: cmyb: GFP embryos were injected with nos1 or control MO at the one-cell stage. At the blastula stage, 100 cells were removed from the donor embryo and transplanted into stage-matched recipients. Embryos were analyzed by confocal microscopy at 36 hpf.
(§1) Morpholino injection: Morpholino antisense oligonucleotides (MO; GENETOOLS, LLC, Philomath, Oreg.) designed against the ATG and exonl splice sites of nos1 (5′-[…] [SEQ. ID NO:1]; 5′-[…] [SEQ ID NO:2), nos2 (5′-[…] [SEQ ID NO:3]; 5′-[…] [SEQ ID NO:4]), and mismatched controls were injected into one-cell-stage embryos.

[2] = tested on: HSCs; assay: in vivo confocal imaging of HSC number in cmyb:GFP; lmo2:dsRed embryos; parameters: species or system zebrafish; conditions: lmo2:dsRed reporter fish, p<0.001, n=5
Description: Confocal Microscopy: Fluorescent reporter embryos were exposed to blood flow modulators (10 μM, unless otherwise noted) as indicated, live embedded in 1% agarose, and imaged with a Zeiss LSM510 Meta confocal microscope at 36 hpf (North et al., 2007) or a Perkin Elmer UltaVIEW VoX spinning disk confocal microscope.

[3] = tested on: runx1/cmyb+ HSCs in the zebrafish AGM; assay: runx1/cmyb in situ hybridization for HSC formation in zebrafish embryos at 36 hpf; format: in vivo; parameters: effect on HSC formation at 36 hpf when treatment occurred before the onset of heartbeat: dose or concentration left out as unconfirmed
Description: In Situ Hybridizataion: Paraformaldehyde-fixed embryos were processed for in situ hybridization according to standard zebrafish protocols. Such protocols are available on-line through the The Zebrafish Model Organism Database. The following RNA probes were used: runx1, cmyb, flk1, ephrinB2, flt4, globin, mpo, mhc, and foxa3. Changes in expression compared to WT controls are reported as the number altered/number scored per genotype/treatment (North et al., 2007); a minimum of three independent experiments was conducted per analysis.
Chemical Exposure: Zebrafish embryos were exposed to chemicals at the doses indicated; dimethyl sulfoxide (DMSO) carrier content was 0.1%. For evaluation of HSC development, exposure ranged from early somitogenesis (5+ somites) until 36 hpf, unless otherwise noted.
as §1

nos1 ATG MO: morpholino antisense oligonucleotide against the ATG site of nos1, 5′-ACGCTGGGCTCTGATTCCTGCATTG, SEQ ID NO:1 (all phosphorodiamidate morpholino (PMO))
donor cell contribution to GFP+ HSC formation in transplanted embryos [1]: none

CC(=O)N[C@H](C(=O)O)C(C)(C)SN=O [SNAP, S-nitroso-N-acetyl-penicillamine]
HSC number by confocal microscopy [2]: increased HSC numbers
effect on HSC formation at 36 hpf when treatment occurred before the onset of heartbeat ([3]; exposure 10 somites-23 hpf): capable of enhancing HSC number

N=C(N)NCCC[C@H](N)C(=O)O [L-arg, L-arginine]
effect on the sih hematopoietic defect (runx1/cmyb), in words ([3]; sih−/− embryos, 36 hpf): rescued the sih hematopoietic defect
effect on HSCs (runx1/cmyb), in words ([3]; wild-type embryos, 36 hpf, bradykinin 10 μM): increased HSCs
